From article PMC8704880, “Secondary Metabolites with Cytotoxic Activities from Streptomyces sp. BM-8 Isolated from the Feces of Equus quagga” (Molecules, 2021)
Read-outs that look alike come from different tables or passages of the source.

How the values were obtained:
[1] = tested on: K562 human chronic myeloid leukemia cell line; test: MTT cytotoxicity assay, K562; format: cell-based; details: 48 h, read-out: IC50 (Means ± SD) K562
Procedure: (§1) The cytotoxic activity of the compounds on cancer cell lines, including HT-29, MCF-7, A375, K562, andNCM460cell lines, was measured using the MTT assay with a small modification. Briefly, cells were plated in 96-well plates at a density of 1 × 10^4 cells per well and allowed to grow overnight, then the medium was replaced with fresh RPMI1640 medium containing serially diluted compounds, and the cells were further incubated at 37 °C with 5% CO2 for 48 h. In this experiment, 1 and 6 were diluted into six different series concentrations from 10 μg/mL to 0.0097 μg/mL with 4× dilution each, while 2 and 3 were diluted from 500 μg/mL to 2.06 μg/mL, and 4, 5, and 7 from 300 μg/mL to 1.23 μg/mL with 3× dilution each. Paclitaxel, a clinical medication used as a positive control, was diluted from 100 μg/mL to 3.125 μg/mL with […]. HT-29, MCF-7, and A375 were all cultured in serum-free RPMI1640, while the K562 was cultured in DMEM containing FBS throughout this experiment. The culture medium was removed after the incubation, and then 100 μL of the 5 mg/mL MTT solution was added to each well and further incubated at 37 °C for 4 h. Finally, the supernatants were removed, and 150 μL of dimethyl sulfoxide (DMSO) was added to each well. After shaking the plates for 10 min at room temperature, the optical density value was measured spectrophotometrically at 570 nm using the microplate reader. The IC50 value (50% inhibitory concentration) was determined to evaluate the cell viability of these cell lines. In this experiment, Graph Pad Prism 5software (San Diego, CA, USA) was used to calculate the half inhibitory concentration (IC50) values. Each experiment was independently repeated at least three times and represented as the means ± standard deviation (SD).

[2] = tested on: HT-29 human colon cancer cell line; test: MTT cytotoxicity assay, HT-29; format: cell-based; details: 48 h, read-out: IC50 (Means ± SD) HT-29
Procedure: as §1

[3] = tested on: A375 human malignant melanoma cell line; test: MTT cytotoxicity assay, A375; format: cell-based; details: A-375, 48 h, read-out: IC50 (Means ± SD) A375
Procedure: as §1

[4] = tested on: NCM460 human normal colon epithelial cell line; test: MTT cytotoxicity assay, NCM460; format: cell-based; details: 48 h, read-out: IC50 (Means ± SD) NCM460
Procedure: as §1

[5] = tested on: MCF-7 human breast cancer cell line; test: MTT cytotoxicity assay, MCF-7; format: cell-based; details: MCF7, 48 h, read-out: IC50 (Means ± SD) MCF-7
Procedure: as §1

[6] = tested on: HT-29, MCF-7, A375, K562 and NCM460 cell lines; test: MTT cytotoxicity assay, whole panel of cell lines; format: cell-based, human; details: for cytotoxic activity toward the tested cell lines (in words): all tested cell lines; for IC50: Homo sapiens, range over all tested cell lines, read-out: IC50 values ranging over the tested cell lines
Procedure: as §1

[7] = medium containing FBS, NA = not active

Row | Compound | IC50 [1, 7] | IC50 ([2]; medium without FBS) | IC50 ([3]; medium without FBS) | IC50 ([4]; normal colon epithelial cells) | IC50 ([5]; medium without FBS) | cytotoxic activity toward the tested cell lines (in words) [6] | IC50 [6] | IC50 ([1]; positive control) | IC50 ([2]; positive control) | IC50 ([3]; positive control) | IC50 ([4]; positive control) | IC50 ([5]; positive control)
1 | CC[C@@H](O)CC1CCC([C@H](C)C(=O)Oc2ccc(C=O)cc2OC)O1 (some centres unmarked) [Compound 15] | 175 ± 3.28 µM | 531 ± 5.46 µM | 175 ± 6.11 µM |  |  |  |  |  |  |  |  | 
2 | CCOC(=O)[C@@H](C)[C@@H]1CC[C@H](C[C@H](O)CC)O1 [Compound 4, ethyl homononactate] | 12.3 ± 0.54 µM | 11.8 ± 1.83 µM | 65.09 ± 0.62 µM | 249 ± 4.22 µM | 39.6 ± 2.57 µM |  |  |  |  |  |  | 
3 | CC[C@@H](O)CC1CCC([C@H](C)C(=O)Nc2ccccc2N)O1 (some centres unmarked) [Compound 18] | 402.9 ± 0.69 µM | 235.7 ± 1.31 µM | 108 ± 5.22 µM | 55.7 ± 7.65 µM | 302.4 ± 1.83 µM | broad toxicity |  |  |  |  |  | 
4 | CC[C@@H](O)CC1CCC([C@H](C)C(=O)Nc2nc3ccccc3s2)O1 (some centres unmarked) [Compound 19] |  | 169 ± 4.2 µM | 128.5 ± 0.48 µM | 80.1 ± 3.82 µM | 270.3 ± 1.09 µM |  |  |  |  |  |  | 
5 | CC(C)[C@@H]1NC(=O)[C@H](C)OC(=O)[C@@H](C(C)C)NC(=O)[C@@H](C(C)C)OC(=O)[C@H](C(C)C)NC(=O)[C@H](C)OC(=O)[C@@H](C(C)C)NC(=O)[C@@H](C(C)C)OC(=O)[C@H](C(C)C)NC(=O)[C@H](C)OC(=O)[C@@H](C(C)C)NC(=O)[C@@H](C(C)C)OC1=O [Compound 6, valinomycin] |  |  |  |  |  | significant cytotoxic activities |  |  |  |  |  | 
6 | CC[C@@H](O)C[C@H]1CC[C@@H]([C@H](C)C(=O)O)O1 [Compound 3, homononactic acid] | 57 ± 1.88 µM | 39.9 ± 3.22 µM | 146 ± 2.01 µM | 1027 ± 8.01 µM | 99.1 ± 2.66 µM |  |  |  |  |  |  | 
7 | CC[C@H](O)CC(=O)CC[C@H](O)C(C)C(=O)O (some centres unmarked) [Compound 1] | 1.56 ± 0.21 µM | 1.98 ± 1.04 µM | 45 ± 1.21 µM | 27.9 ± 4.7 µM | 5.44 ± 1.33 µM | less activity |  |  |  |  |  | 
8 | CC[C@@H](O)CC1CCC([C@H](C)C(=O)OCc2ccccc2)O1 (some centres unmarked) [Compound 14] | 41.4 ± 2.84 µM | 73.2 ± 1.05 µM | 89.9 ± 1.09 µM | 21.1 ± 3.66 µM | 111 ± 3.89 µM | broad toxicity | 21.1 to 89.9 µM |  |  |  |  | 
9 | CC[C@@H](O)CC1CCC([C@H](C)C(=O)OC(C)C)O1 (some centres unmarked) [Compound 9] | 69.4 ± 3.9 µM | 113 ± 3.68 µM | 115 ± 3.66 µM | 29 ± 3.68 µM | 171 ± 5.08 µM | broad toxicity |  |  |  |  |  | 
10 | CC(C)CC1NC(=O)C2CCCN2C1=O (centres unmarked) [Compound 7, cyclo-(Pro-Leu)] | 21.7 ± 0.35 µM | 102 ± 2.66 µM | 51.1 ± 4.73 µM | 776 ± 11.4 µM | 78.8 ± 1.95 µM |  |  |  |  |  |  | 
11 | CCCCCCCCCCCCCCOC(=O)[C@@H](C)C1CCC(C[C@H](O)CC)O1 (some centres unmarked) [Compound 12] | 187 ± 4.57 µM | 209 ± 3.25 µM | 127 ± 6.65 µM | 150 ± 4.03 µM | 485.6 ± 3.18 µM |  |  |  |  |  |  | 
12 | CCCCOC(=O)[C@@H](C)C1CCC(C[C@H](O)CC)O1 (some centres unmarked) [Compound 10] | 285.1 ± 2.44 µM | 326.8 ± 1.4 µM | 314.6 ± 0.57 µM | 109 ± 3.6 µM | 416.5 ± 3.9 µM |  |  |  |  |  |  | 
13 | CC[C@@H](O)C[C@H]1CC[C@@H]([C@H](C)C(=O)O[C@@H](CC)C[C@@H]2CC[C@H]([C@@H](C)C(=O)O)O2)O1 [Compound 5, homononactylhomononactate] | 14.2 ± 0.47 µM | 38.1 ± 2.35 µM | 30.7 ± 0.93 µM | 33.3 ± 3.31 µM | 16.7 ± 1.08 µM |  |  |  |  |  |  | 
14 | C[C@H](C(=O)N1CCCCC1)C1CCC(C[C@@H](C)O)O1 (some centres unmarked) [Compound 17] | 339 ± 1.23 µM | 563 ± 7.35 µM | 199.1 ± 1.9 µM | 180 ± 7.88 µM | 390 ± 10 µM |  |  |  |  |  |  | 
15 | C[C@H](C(=O)O)[C@@H]1CC[C@H](C[C@@H](C)O)O1 [Compound 2, nonactic acid] | 83.6 ± 2.54 µM | 44.4 ± 2.77 µM | 185.9 ± 1.27 µM | 1605 ± 14.4 µM | 289 ± 3.54 µM |  |  |  |  |  |  | 
16 | CCCCCCCCCCCCCCCCCCOC(=O)[C@@H](C)C1CCC(C[C@H](O)CC)O1 (some centres unmarked) [Compound 13] | 313 ± 3.29 µM | 322 ± 4.17 µM | 217.6 ± 0.99 µM | 299.3 ± 1.77 µM | 362.4 ± 0.96 µM |  |  |  |  |  |  | 
17 | CC(=O)O[C@H]1C(=O)[C@@]2(C)[C@H]([C@H](OC(=O)c3ccccc3)[C@]3(O)C[C@H](OC(=O)[C@H](O)[C@@H](NC(=O)c4ccccc4)c4ccccc4)C(C)=C1C3(C)C)[C@]1(OC(C)=O)CO[C@@H]1C[C@@H]2O [Paclitaxel, reference compound] |  |  |  |  |  |  |  | 0.00931 ± 0.00188 µM | 0.00569 ± 0.00132 µM | 0.0458 ± 0.00179 µM | 0.0182 ± 0.00234 µM | 0.0138 ± 0.00212 µM
18 | CC[C@@H](O)CC1CCC([C@H](C)C(=O)Oc2ccc(-c3ccccc3)cc2)O1 (some centres unmarked) [Compound 16] | 105 ± 2.58 µM | 165.1 ± 1.23 µM | 67.32 ± 0.25 µM | 110 ± 1.36 µM | 156 ± 3.56 µM |  |  |  |  |  |  | 
19 | CCOC(=O)[C@@H](C)C1CCC(C[C@@H](C)O)O1 (some centres unmarked) [Compound 8] |  | 441.3 ± 1.65 µM | 445.9 ± 4.1 µM | 164 ± 3.09 µM | 847 ± 39.5 µM |  |  |  |  |  |  | 
20 | CCCCCCCCCCOC(=O)[C@@H](C)C1CCC(C[C@@H](C)O)O1 (some centres unmarked) [Compound 11] | 38.2 ± 0.7 µM | 43.2 ± 2.84 µM | 24.29 ± 0.03 µM | 44.2 ± 0.64 µM | 34.1 ± 1.87 µM |  | 24.3 to 44.2 µM |  |  |  |  | 
21 | CCC[C@H](CC1CCC([C@H](C)C(=O)O)O1)O[Si](C)(C)C(C)(C)C (some centres unmarked) [Compound 20] | 323 ± 5.94 µM | 356 ± 7.67 µM | 215 ± 0.76 µM | 37 ± 1.39 µM | 284.3 ± 1.24 µM | broad toxicity |  |  |  |  |  | 
